Our source for the inhibition values is ChEMBL document CHEMBL4627332, “Interruption of Vif/Elongin C interaction: In silico and experimental elucidation of the underlying molecular mechanism of benzimidazole-based APOBEC3G stabilizers” (Bioorg Med Chem, 2020).

A short description of the assay: Inhibition of HIV1 Vif interaction with ElonginC (unknown origin) co-transfected in 293 T cells assessed as decrease in ElonginC precipitation at 20 uM measured after 1 hr in presence of ant-FLAG antibody by immunoblot analysis. The class given is cell-based. (In general: A western blot detects proteins with antibodies after separation by electrophoresis.)

The source made the active and inactive calls. The rule behind the calls is not given here.

`Cc1noc(C)c1CSc1nc2ccccc2n1-c1ccccc1`: the inhibition entry is “Active”.
